Measurements from ChEMBL document CHEMBL1201862, “PubChem BioAssay data set” (2004).
Activity calls are given as the source filed them.

Tests used:
Paired box protein Pax-8 = Paired box protein Pax-8 (Homo sapiens, UniProt Q06710); assay: inhibitors of PAX8-driven TPO luciferase reporter, dose response, RMG-I cells, cherry-pick (AID 687027); type: functional, cell-based;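 note: luciferase reporter driven by Pax8 target thyroperoxidase promoter measured by SteadyGlo luminescence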
[1] = inhibitors of CMV-promoter luciferase reporter, dose response, counter-screen for Pax8 inhibitor project, cell-based, HEK293, luminescence, dry powder (AID 743020); type: functional
[2] = cytotoxicity in OVCAR8 ovarian cancer cells, dose response, PAX8 project, cell-based, plate reader, dry powder samples (AID 743197); type: functional; conditions: OVCAR-8
[3] = A375 melanoma cell viability loss, dose response, counter-screen for MITF inhibitor project, CellTiter-Glo luminescence, dry powder, set 4 (AID 624364); type: functional, cell-based; conditions: A-375;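 note: A375 melanoma cells are MITF independent so this is a counter screen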
[4] = A375 melanoma cell cytotoxicity, dose response, counter-screen for MITF inhibitor project, CellTiter-Glo luminescence, dry powder, set 2 (AID 624489); type: functional, cell-based; conditions: A-375;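 note: actives are compounds lowering A375 viability meaning general cytotoxicity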
[5] = target: COUP transcription factor 2 (Homo sapiens, UniProt P24468); assay: Luminescence-based cell-based high throughput dose response assay to identify inhibitors of COUP-TFII (NR2F2).; type: functional;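 note: HEK293 cells transiently cotransfected with COUP-TFII expression vector and reporter; luciferase reporter luminescence driven by COUP-TFII from the pX2-168 reporter plasmid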
[6] = Luminescence Cell-Based Dose Response to Identify Activators of 5'UTR Stem-Loop Driven Prion Protein mRNA Translation in H4-C Neuroglioblastoma Cells. [Related pubchem assays: 1829 (Project Summary), 1814 (Primary HTS)]; type: functional
[7] = Luminescence Cell-Based Dose Response HTS to Identify Activators of Luciferase Translation or Activity in H4 […] Cells. [Related pubchem assays: 1829 (Project Summary), 1814 (Primary HTS)]; type: functional
[8] = Luminescence Cell-Based Dose Response to Identify Activators of Luciferase Translation or Activity in H4-C Neuroglioblastoma Cells. [Related pubchem assays: 1829 (Project Summary), 1814 (Primary HTS)]; type: functional
[9] = Luminescence Cell-Based Dose Confirmation to Identify Activators of 5'UTR Stem-Loop Driven Alpha-Synuclein mRNA Translation in H4 Neuroglioblastoma Cells. [Related pubchem assays: 1829 (Project Summary), 1814 (Primary HTS)]; type: functional
[10] = inhibitors of non-replicating M. tuberculosis, dose response, luciferase, dry powder (AID 651619); type: functional; conditions: Mycobacterium tuberculosis
[11] = HEK293T cell cytotoxicity, dose response, cytotoxicity control, CellTiter-Glo luminescence, dry powder, set 6 (AID 651949); type: functional, cell-based; conditions: HEK293
[12] = inhibitors of non-replicating M. tuberculosis, dose response, luciferase, dry powder (AID 651620); type: functional; conditions: Mycobacterium tuberculosis
[13] = growth inhibition of replicating M. tuberculosis, dose response, counter-screen, dry powder, IC90 (AID 651617); type: functional; conditions: Mycobacterium tuberculosis
Cytochrome P450 2C9 = Cytochrome P450 2C9 (Homo sapiens, UniProt P11712)
[14] = Late stage assay provider results from the probe development effort to identify inhibitors of the Plasmodium falciparum M18 Aspartyl Aminopeptidase (M18AAP): radiolabel-based cell-based dose response assay to identify compounds that inhibit P. falciparum growth in RBCs, Set 2..; type: functional
[15] = A2780 ovarian cancer cell cytotoxicity, dose response, cytotoxicity control, plate reader, dry powder samples (AID 743046); type: functional, cell-based
[16] = target: Fructose-bisphosphate aldolase (Mycobacterium tuberculosis, UniProt P9WQA3); assay: Fluorescence-based biochemical high throughput dose response assay for inhibitors of the fructose-bisphosphate aldolase (FBA) of M. tuberculosis.; type: functional
[17] = target: Luciferin 4-monooxygenase (Photinus pyralis, UniProt P08659); assay: Counter Screen for Luciferase-based Assay Positives. [Related pubchem assays: 620, 618, 411 ]
HT-1080 = assay: cytotoxicity in HT1080 fibrosarcoma cells, cell-based, fluorescence readout (AID 620); type: functional; conditions: Homo sapiens
cells = type: functional, cell-based
[18] = target: T1, Nuclear receptor subfamily 0 group B member 1 (Homo sapiens, UniProt P51843); type: functional, cell-based;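 note: HEK293T cells transfected with SF-1 and DAX-1 plus StAR promoter luciferase reporter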
T1 sequence (P51843 whole entry): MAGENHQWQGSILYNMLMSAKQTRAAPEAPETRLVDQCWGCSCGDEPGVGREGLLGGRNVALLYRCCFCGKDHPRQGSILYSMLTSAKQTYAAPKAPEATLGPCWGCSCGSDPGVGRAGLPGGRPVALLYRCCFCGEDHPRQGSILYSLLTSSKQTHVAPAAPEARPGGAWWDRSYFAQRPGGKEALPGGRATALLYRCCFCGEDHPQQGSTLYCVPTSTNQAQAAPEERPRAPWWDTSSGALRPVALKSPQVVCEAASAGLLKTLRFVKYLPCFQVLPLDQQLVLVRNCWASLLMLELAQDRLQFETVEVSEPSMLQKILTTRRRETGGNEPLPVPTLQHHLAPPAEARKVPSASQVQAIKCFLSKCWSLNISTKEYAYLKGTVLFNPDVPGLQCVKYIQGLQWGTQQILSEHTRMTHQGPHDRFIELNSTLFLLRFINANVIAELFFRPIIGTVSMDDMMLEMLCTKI

[19] = A549 cell cytotoxicity, dose response, cytotoxicity control, plate reader, cherry-pick, antagonist series (AID 743412); type: functional, cell-based
[20] = HepG2 cell cytotoxicity, dose response, cytotoxicity control, plate reader, cherry-pick, antagonist series (AID 743416); type: functional, cell-based
[21] = LGR2 antagonists, dose response, cell-based, HEK293, CRE-luciferase reporter, cherry pick, set 2 (AID 743343); type: functional;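 note: transfected cells were stimulated with diluted bursicon conditioned medium after compound addition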
[22] = MC4R antagonists, dose response, counter-screen for LGR2 antagonist project, cell-based, plate reader, cherry pick (AID 743444); type: functional;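 note: transfected HEK 293 cells stimulated with alpha-MSH peptide; potency of inhibitors of the alpha-MSH evoked signal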
[23] = A549 cell cytotoxicity, dose response, cytotoxicity control, 24 h, CellTiter-Glo luminescence, cherry-picks (AID 1053115); type: functional, cell-based; conditions: A549, 24 h
[24] = target: Potassium channel subfamily K member 9 (Homo sapiens, UniProt Q9NPC2); assay: TASK3 (KCNK9) channel inhibitors, thallium flux, SAR follow-up, selectivity assay for TASK1 inhibitor project, cell-based, FluxOR thallium flux, concentration-response (AID 652211); type: functional;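 note: potency is for inhibitors of the channel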
[25] = target: Potassium channel subfamily K member 3 (Homo sapiens, UniProt O14649); assay: TASK1 (KCNK3) potassium channel inhibitors, SAR follow-up, CHO cells, FluxOR thallium flux (AID 652212); type: functional
[26] = cytotoxicity in HepG2 cells, dose response, cytotoxicity control, cell-based, plate reader, dry powder (AID 651947); type: functional
NS3 = NS3 (Hepatitis C virus, UniProt A3EZJ3); assay: HCV NS3 helicase inhibitor potency, dose response, biochemical, fluorescence polarization, ChemBridge library (AID 743264)
[27] = HepG2 cell cytotoxicity, dose response, cytotoxicity control, cherry-picks, set 5 (AID 1053118); type: functional, cell-based
[28] = HEK293 cell cytotoxicity, dose response, cytotoxicity control, cherry-picks, set 5 (AID 1053117); type: functional, cell-based
[29] = test system: Streptococcus sp. 'group A'; assay: growth inhibition of control SK(-) GAS strain, dose response, counter-screen for streptokinase expression inhibitor project, luminescence, kanamycin, BacTiterGlo, confirmation (AID 1900); type: functional, organism-based
[30] = inhibitors of intracellular T. cruzi replication, confirmation, NIH3T3 host cells, beta-gal luminescence (AID 2044); type: functional, cell-based;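 note: intracellular parasites grown in NIH/3T3 mouse fibroblasts as host cells; luminescent beta-galactosidase reporter signal from transgenic T. cruzi replicating inside host cells; inhibitors lower the luminescence signal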
[31] = cytotoxicity toward NIH3T3 fibroblasts, dose response, counter-screen, cell-based, ATP luminescence, mouse fibroblasts (AID 2010); type: functional;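 note: cells exposed to compound for about 90 hours before reading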
Streptococcus = assay: Group A Streptococcus viability loss, dose response, counter-screen for streptokinase expression inhibitor project, luminescence, BacTiterGlo (AID 1915); type: functional, organism-based;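 note: potency for reduction of bacterial viability or growth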
[32] = HepG2 cell cytotoxicity, dose response, cytotoxicity control, ATP luminescence, cherry-pick, activator set 2 (AID 1053143); type: functional, cell-based
HeLa = assay: HeLa cell cytotoxicity, dose response, cytotoxicity control, ATP luminescence, cherry-pick samples (AID 687004); type: functional, cell-based; conditions: Homo sapiens
[33] = IOSE-T80 ovarian epithelial cell cytotoxicity, dose response, cytotoxicity control for PAX8 inhibitor project, plate reader, dry powder samples (AID 743045); type: functional, cell-based
[34] = inhibitors of PGC1a acetylation in cells, dose response, cell-based, cherry-picked samples (AID 720514); type: functional;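 note: potency may reflect raised or lowered acetylation signal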
[35] = NIH:OVCAR-3 ovarian cancer cell cytotoxicity, dose response, PAX8 inhibitor project, plate reader, dry powder samples (AID 743044); type: functional, cell-based
[36] = non-specific cell cytotoxicity, dose response, cytotoxicity control for PAX8 inhibitor project, plate reader, dry powder samples (AID 743021); type: functional, cell-based
[37] = target: Kappa-type opioid receptor (Homo sapiens, UniProt P41145); assay: OPRK1 antagonists, late-stage follow-up, cell-based, fluorescence, dose response (AID 652032); type: functional
[38] = HEK293T cytotoxicity, dose response, cytotoxicity control for miR-122 modulator project, cell-based, inhibitor set, cherry-pick, set 2 (AID 720697); type: functional

Chain of Paired box protein Pax-8 (Q06710 whole entry): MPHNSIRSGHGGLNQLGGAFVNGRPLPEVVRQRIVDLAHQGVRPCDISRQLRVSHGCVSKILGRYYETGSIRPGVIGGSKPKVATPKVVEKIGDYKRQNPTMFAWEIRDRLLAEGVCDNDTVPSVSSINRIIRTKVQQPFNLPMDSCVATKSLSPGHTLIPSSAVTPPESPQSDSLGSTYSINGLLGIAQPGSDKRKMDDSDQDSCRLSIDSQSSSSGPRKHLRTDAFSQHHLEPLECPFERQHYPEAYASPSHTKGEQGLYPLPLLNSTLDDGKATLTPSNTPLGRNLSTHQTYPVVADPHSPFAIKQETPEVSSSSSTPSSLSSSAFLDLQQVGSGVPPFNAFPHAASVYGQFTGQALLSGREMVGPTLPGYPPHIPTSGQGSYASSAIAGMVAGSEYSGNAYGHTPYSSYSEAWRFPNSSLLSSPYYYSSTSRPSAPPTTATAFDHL
Chain of Potassium channel subfamily K member 9 (Q9NPC2 whole entry): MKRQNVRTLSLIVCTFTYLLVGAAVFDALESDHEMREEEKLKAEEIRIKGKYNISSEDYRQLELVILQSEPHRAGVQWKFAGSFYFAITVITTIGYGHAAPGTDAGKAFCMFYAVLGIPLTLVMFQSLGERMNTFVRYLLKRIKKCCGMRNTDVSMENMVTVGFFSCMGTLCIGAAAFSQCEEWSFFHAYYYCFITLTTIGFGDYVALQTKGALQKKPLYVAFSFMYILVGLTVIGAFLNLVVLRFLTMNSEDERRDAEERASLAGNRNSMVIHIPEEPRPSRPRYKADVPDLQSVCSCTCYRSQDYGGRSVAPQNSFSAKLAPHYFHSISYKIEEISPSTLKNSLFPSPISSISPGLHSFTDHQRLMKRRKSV
Chain of NS3 (A3EZJ3 whole entry): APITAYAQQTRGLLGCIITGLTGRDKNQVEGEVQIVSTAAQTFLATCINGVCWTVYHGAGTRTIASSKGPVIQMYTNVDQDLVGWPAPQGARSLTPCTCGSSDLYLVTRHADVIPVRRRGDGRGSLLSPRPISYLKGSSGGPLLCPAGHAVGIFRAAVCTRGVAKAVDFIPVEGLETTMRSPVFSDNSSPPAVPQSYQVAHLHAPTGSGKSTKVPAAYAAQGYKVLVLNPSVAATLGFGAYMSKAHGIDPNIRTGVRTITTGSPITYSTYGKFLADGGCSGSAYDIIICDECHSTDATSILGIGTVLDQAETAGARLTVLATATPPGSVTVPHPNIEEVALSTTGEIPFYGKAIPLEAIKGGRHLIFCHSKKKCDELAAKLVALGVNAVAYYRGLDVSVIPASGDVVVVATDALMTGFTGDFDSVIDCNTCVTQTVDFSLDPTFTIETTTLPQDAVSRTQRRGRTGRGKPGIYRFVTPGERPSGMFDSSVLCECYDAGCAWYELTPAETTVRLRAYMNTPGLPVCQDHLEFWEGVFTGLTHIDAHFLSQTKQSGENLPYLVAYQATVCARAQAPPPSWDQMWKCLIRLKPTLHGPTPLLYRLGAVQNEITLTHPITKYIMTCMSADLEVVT
Chain of Kappa-type opioid receptor (P41145 whole entry): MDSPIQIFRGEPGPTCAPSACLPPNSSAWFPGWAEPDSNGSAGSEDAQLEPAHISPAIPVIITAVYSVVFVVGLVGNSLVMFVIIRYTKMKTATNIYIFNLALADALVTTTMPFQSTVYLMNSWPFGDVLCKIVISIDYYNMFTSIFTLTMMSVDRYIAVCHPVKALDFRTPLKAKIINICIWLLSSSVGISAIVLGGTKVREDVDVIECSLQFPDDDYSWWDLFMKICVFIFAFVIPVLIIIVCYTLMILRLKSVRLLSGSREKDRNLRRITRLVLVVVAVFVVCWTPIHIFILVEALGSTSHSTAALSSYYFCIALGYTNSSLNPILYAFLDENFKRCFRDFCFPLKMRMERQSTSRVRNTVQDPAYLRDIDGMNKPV
Chain of Luciferin 4-monooxygenase (P08659 whole entry): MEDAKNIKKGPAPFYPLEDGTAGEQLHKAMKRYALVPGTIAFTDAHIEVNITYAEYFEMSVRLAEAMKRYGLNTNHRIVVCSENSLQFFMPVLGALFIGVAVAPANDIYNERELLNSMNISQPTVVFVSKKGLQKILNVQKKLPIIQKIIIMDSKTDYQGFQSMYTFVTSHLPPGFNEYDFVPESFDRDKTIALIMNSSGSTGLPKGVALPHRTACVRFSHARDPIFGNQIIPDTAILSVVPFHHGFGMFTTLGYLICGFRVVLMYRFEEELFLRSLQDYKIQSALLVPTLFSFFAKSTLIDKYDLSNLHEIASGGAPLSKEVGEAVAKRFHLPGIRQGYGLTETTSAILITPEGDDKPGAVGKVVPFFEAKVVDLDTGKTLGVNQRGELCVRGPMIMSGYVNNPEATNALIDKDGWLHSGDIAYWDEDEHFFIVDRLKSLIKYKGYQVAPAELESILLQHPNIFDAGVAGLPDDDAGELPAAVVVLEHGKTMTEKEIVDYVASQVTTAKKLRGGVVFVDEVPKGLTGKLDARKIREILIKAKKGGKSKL
Chain of COUP transcription factor 2 (P24468 whole entry): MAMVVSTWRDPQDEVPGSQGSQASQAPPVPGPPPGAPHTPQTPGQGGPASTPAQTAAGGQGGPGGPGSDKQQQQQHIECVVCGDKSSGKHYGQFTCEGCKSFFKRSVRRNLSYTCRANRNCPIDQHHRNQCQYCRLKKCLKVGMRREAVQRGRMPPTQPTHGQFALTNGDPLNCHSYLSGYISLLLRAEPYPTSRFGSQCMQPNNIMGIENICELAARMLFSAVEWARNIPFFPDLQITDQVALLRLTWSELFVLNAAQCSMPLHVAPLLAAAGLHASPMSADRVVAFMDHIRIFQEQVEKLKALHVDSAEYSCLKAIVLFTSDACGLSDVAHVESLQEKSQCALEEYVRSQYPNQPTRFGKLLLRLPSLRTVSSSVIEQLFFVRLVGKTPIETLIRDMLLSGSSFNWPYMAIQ
Chain of Fructose-bisphosphate aldolase (P9WQA3 whole entry): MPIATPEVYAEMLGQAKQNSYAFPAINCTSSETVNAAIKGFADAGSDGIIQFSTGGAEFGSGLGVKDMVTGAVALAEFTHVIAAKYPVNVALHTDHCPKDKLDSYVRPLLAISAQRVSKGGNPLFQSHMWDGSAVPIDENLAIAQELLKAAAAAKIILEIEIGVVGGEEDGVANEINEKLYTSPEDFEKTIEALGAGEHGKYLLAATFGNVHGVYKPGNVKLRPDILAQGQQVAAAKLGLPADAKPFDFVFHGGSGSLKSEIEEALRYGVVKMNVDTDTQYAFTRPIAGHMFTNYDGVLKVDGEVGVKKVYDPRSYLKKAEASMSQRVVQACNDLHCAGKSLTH
Chain of Cytochrome P450 2C9 (P11712 whole entry): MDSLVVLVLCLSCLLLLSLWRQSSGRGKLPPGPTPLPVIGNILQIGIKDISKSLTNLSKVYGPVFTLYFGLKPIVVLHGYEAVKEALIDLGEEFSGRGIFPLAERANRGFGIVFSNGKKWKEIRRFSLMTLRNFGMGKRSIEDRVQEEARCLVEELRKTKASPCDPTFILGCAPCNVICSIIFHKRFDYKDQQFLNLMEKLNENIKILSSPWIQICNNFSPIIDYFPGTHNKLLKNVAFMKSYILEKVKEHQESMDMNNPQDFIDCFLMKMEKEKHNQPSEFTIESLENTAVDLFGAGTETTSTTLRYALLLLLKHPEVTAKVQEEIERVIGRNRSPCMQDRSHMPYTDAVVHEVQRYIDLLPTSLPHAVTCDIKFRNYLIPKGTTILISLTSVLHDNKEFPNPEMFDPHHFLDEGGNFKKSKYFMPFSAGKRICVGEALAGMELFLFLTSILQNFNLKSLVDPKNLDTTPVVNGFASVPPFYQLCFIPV
Chain of Potassium channel subfamily K member 3 (O14649 whole entry): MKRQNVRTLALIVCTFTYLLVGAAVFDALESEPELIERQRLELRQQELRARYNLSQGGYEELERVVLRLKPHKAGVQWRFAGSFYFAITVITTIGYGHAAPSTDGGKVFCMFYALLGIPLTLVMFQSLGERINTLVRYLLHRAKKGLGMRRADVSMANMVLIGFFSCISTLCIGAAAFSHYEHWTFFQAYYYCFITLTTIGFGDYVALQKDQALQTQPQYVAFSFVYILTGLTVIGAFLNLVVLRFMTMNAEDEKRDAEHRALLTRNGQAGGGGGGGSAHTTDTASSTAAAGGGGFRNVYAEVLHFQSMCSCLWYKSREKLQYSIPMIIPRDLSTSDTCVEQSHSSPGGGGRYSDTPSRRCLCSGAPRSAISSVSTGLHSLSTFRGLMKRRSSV

COc1ccc(S(=O)(=O)Nc2ccc3c(c2)CC(=O)N([C@H](C)CO)C[C@H](C)[C@@H](CN(C)Cc2ccc(C(F)(F)F)cc2)O3)cc1
AC50 (Paired box protein Pax-8): 19.3 µM (active)
AC50 [1]: 49.3 µM (active)
AC50 [2]: > 70 µM (inactive)

COc1ccc(C(=O)NC2=C(c3ccc(OC)cc3)C(=O)c3ccccc3C2=O)cc1
AC50 [3]: 20.1 µM (active)
AC50 [4]: 13.3 µM (active)

Cc1c(C(=O)C2=C(O)C(=O)N(CCN3CCOCC3)C2c2ccco2)cnn1-c1ccccc1 (stereo unspecified)
IC50 [5]: 21.1 µM (inactive)

c1ccc(-c2nnc(SCCC3OCCCO3)o2)cc1
EC50 [6]: 1.55 µM (active)
EC50 [7]: 0.936 µM (active)
EC50 [8]: 0.852 µM (active)
EC50 [9]: 0.604 µM (active)
IC90 [10]: 8 µM (active)
AC50 [11]: > 52 µM (inactive)
IC90 [12]: 8 µM (active)
IC90 [13]: 62 µM (active)
AC50 (Cytochrome P450 2C9): inconclusive

Oc1ccc(CCNC(c2ccccc2)c2ccccc2)cc1O
IC50 [14]: 17 µM (inactive)

Cc1ccc(S(=O)(=O)Nc2ccc3c(c2)C(=O)N([C@H](C)CO)C[C@@H](C)[C@H](CN(C)S(=O)(=O)c2ccccc2)OCCCC[C@H](C)O3)cc1
AC50 (Paired box protein Pax-8): 8.05 µM (active)
AC50 [15]: 29.5 µM (active)
AC50 [2]: > 70 µM (inactive)

CCCc1cc(=O)oc2cc(OCc3ccc(C(=O)O)o3)ccc12
IC50 [16]: 2.44 µM (active)

COc1ccc(C(=O)Nc2nnc(-c3ccco3)s2)cc1
EC50 [17]: > 100 µM (not active)
EC50 (HT-1080): > 50 µM (not active)
IC50 (cells): > 67.5 µM (inactive)
IC50 [18]: > 67.5 µM (inactive)
AC50 [19]: > 52 µM (inactive)
AC50 [20]: > 52 µM (inactive)
AC50 [21]: 3.75 µM (active)
AC50 [22]: 3.67 µM (active)

C[C@@H]1CCCCO[C@@H](CN(C)S(=O)(=O)c2ccc(Cl)cc2)[C@@H](C)CN([C@@H](C)CO)C(=O)c2cc(NC(=O)Nc3ccc(F)cc3)ccc2O1
AC50 [23]: 51.4 µM (active)

O=C(Nc1ccccc1Cl)c1cccc(NC(=O)C2CCCC2)c1
IC50 [24]: 5.78 µM (active)
IC50 [25]: 0.202 µM (active)

Fc1ccc(Cn2cc(CSc3nnc(-c4ccc(F)cc4)o3)nn2)cc1
IC90 [10]: 1 µM (active)
AC50 [26]: 30.8 µM (active)
IC90 [12]: 1 µM (active)

Cc1c(C(=O)O)cccc1-n1c(C)ccc1C
IC50 (NS3): 34.5 µM (inactive)

CO[C@@H]1CN(C)C(=O)c2cc(NC(=O)Nc3cc(Cl)cc(Cl)c3)ccc2OC[C@@H](C)NC[C@@H]1C
AC50 [27]: 23.8 µM (active)
AC50 [28]: 36.7 µM (active)

CCOc1ccc2c(c1)C(=NNC(=O)c1ccncc1)c1cc(OCC)ccc1-2
EC50 [29]: 0.894 µM (active)
EC50 [30]: 0.825 µM (active)
EC50 [31]: > 60 µM (inconclusive)
EC50 (Streptococcus): 3.66 µM (active)
AC50 [32]: 26 µM (active)

COc1ccc(C2=Nc3ccccc3NC(=O)C2N(C(=O)c2cc3ccccc3[nH]2)c2ccccc2)cc1 (stereo unspecified)
AC50 (HeLa): > 52 µM (inactive)

Fc1cccc(CN2C[C@@H]3N[C@H](C2)[C@@H]3c2ccc(-c3cccc(F)c3)cc2)c1
AC50 (Paired box protein Pax-8): 23.4 µM (active)
AC50 [33]: 27.6 µM (active)
AC50 [34]: 4.43 µM (active)
AC50 [35]: 22.1 µM (active)
AC50 [36]: 19.5 µM (active)
AC50 [2]: 27 µM (active)

COC(=O)c1cc(Br)cnc1N1CCC(N)CC1
IC50 [37]: 21.8 µM (inactive)

Cc1ccc(-c2ccc3c(c2)O[C@H](CN(C)C(=O)CC2CC2)[C@H](C)CN([C@@H](C)CO)S3(=O)=O)cc1
AC50 [38]: 10.4 µM (active)
